Laboratory results as given in PMC8843100, “Development of newly synthesised quinazolinone-based CDK2 inhibitors with potent efficacy against melanoma” (Journal of Enzyme Inhibition and Medicinal Chemistry, 2022).

How the values were obtained:
[1] = test system: 786-0; experiment: NCI-60 single dose screen, sulforhodamine B; type: cell-based, human; conditions: Renal cancer 786-0; single dose 10^−5 M
In short: (§1)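 Sulforhodamine B assay at one dose (10 µM). Cells grew 1 day, were treated, incubated 2 days more, then fixed and stained; inhibition is relative to untreated cells and time-zero density.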

[2] = test system: A498; experiment: NCI-60 single dose screen, sulforhodamine B; type: cell-based, human; conditions: Renal cancer A498; single dose 10^−5 M
In short: as §1

[3] = test system: A549/ATCC; experiment: NCI-60 single dose screen, sulforhodamine B; type: cell-based, human; conditions: Non-small cell lung cancer A549/ATCC; single dose 10^−5 M
In short: as §1

[4] = test system: ACHN; experiment: NCI-60 single dose screen, sulforhodamine B; type: cell-based, human; conditions: Renal cancer ACHN; single dose 10^−5 M
In short: as §1

[5] = test system: CAKI-1; experiment: NCI-60 single dose screen, sulforhodamine B; type: cell-based, human; conditions: Renal cancer CAKI-1; single dose 10^−5 M
In short: as §1

[6] = test system: CCRF-CEM; experiment: NCI-60 single dose screen, sulforhodamine B; type: cell-based, human; conditions: Leukaemia CCRF-CEM; single dose 10^−5 M
In short: as §1

[7] = test system: COLO 205; experiment: NCI-60 single dose screen, sulforhodamine B; type: cell-based, human; conditions: Colon cancer COLO 205; single dose 10^−5 M
In short: as §1

[8] = test system: DU-145; experiment: NCI-60 single dose screen, sulforhodamine B; type: cell-based, human; conditions: Prostate cancer DU-145; single dose 10^−5 M
In short: as §1

[9] = test system: EKVX; experiment: NCI-60 single dose screen, sulforhodamine B; type: cell-based, human; conditions: Non-small cell lung cancer EKVX; single dose 10^−5 M
In short: as §1

[10] = test system: K-562; experiment: NCI-60 single dose screen, sulforhodamine B; type: cell-based, human; conditions: Leukaemia K-562; single dose 10^−5 M
In short: as §1

[11] = test system: LOX IMVI; experiment: NCI-60 single dose screen, sulforhodamine B; type: cell-based, human; conditions: Melanoma LOX IMVI; single dose 10^−5 M
In short: as §1

[12] = test system: M14; experiment: NCI-60 single dose screen, sulforhodamine B; type: cell-based, human; conditions: Melanoma M14; single dose 10^−5 M
In short: as §1

[13] = test system: NCI-H226; experiment: NCI-60 single dose screen, sulforhodamine B; type: cell-based, human; conditions: Non-small cell lung cancer NCI-H226; single dose 10^−5 M
In short: as §1

[14] = test system: NCI-H23; experiment: NCI-60 single dose screen, sulforhodamine B; type: cell-based, human; conditions: Non-small cell lung cancer NCI-H23; single dose 10^−5 M
In short: as §1

[15] = test system: OVCAR-4; experiment: NCI-60 single dose screen, sulforhodamine B; type: cell-based, human; conditions: Ovarian cancer OVCAR-4; single dose 10^−5 M
In short: as §1

[16] = test system: OVCAR-5; experiment: NCI-60 single dose screen, sulforhodamine B; type: cell-based, human; conditions: Ovarian cancer OVCAR-5; single dose 10^−5 M
In short: as §1

[17] = test system: SF-539; experiment: NCI-60 single dose screen, sulforhodamine B; type: cell-based, human; conditions: CNS cancer SF-539; single dose 10^−5 M
In short: as §1

[18] = test system: SK-MEL-28; experiment: NCI-60 single dose screen, sulforhodamine B; type: cell-based, human; conditions: Melanoma SK-MEL-28; single dose 10^−5 M
In short: as §1

[19] = test system: SK-MEL-2; experiment: NCI-60 single dose screen, sulforhodamine B; type: cell-based, human; conditions: Melanoma SK-MEL-2; single dose 10^−5 M
In short: as §1

[20] = test system: SK-MEL-5; experiment: NCI-60 single dose screen, sulforhodamine B; type: cell-based, human; conditions: Melanoma SK-MEL-5; single dose 10^−5 M
In short: as §1

[21] = test system: SW-620; experiment: NCI-60 single dose screen, sulforhodamine B; type: cell-based, human; conditions: Colon cancer SW-620; single dose 10^−5 M
In short: as §1

[22] = test system: TK-10; experiment: NCI-60 single dose screen, sulforhodamine B; type: cell-based, human; conditions: Renal cancer TK-10; single dose 10^−5 M
In short: as §1

[23] = test system: UACC-257; experiment: NCI-60 single dose screen, sulforhodamine B; type: cell-based, human; conditions: Melanoma UACC-257; single dose 10^−5 M
In short: as §1

[24] = test system: UO-31; experiment: NCI-60 single dose screen, sulforhodamine B; type: cell-based, human; conditions: Renal cancer UO-31; single dose 10^−5 M
In short: as §1

CN1CCN(CC(=O)Nn2c(COc3ccccc3)nc3ccccc3c2=O)CC1 [Compound 8a, 2–(4-methylpiperazin-1-yl)-N-(4-oxo-2-(phenoxymethyl)quinazolin-3(4H)-yl)acetamide]
GI% at 10^−5 M [1]: – (– means GI < 10%) | GI% at 10^−5 M [2]: 18.24% | GI% at 10^−5 M [3]: – (– means GI < 10%) | GI% at 10^−5 M [4]: – (– means GI < 10%) | GI% at 10^−5 M [5]: 28.85% | GI% at 10^−5 M [6]: 10.65% | GI% at 10^−5 M [7]: 15.89% | GI% at 10^−5 M [8]: – (– means GI < 10%) | GI% at 10^−5 M [9]: 13.93% | GI% at 10^−5 M [10]: 67.8% | GI% at 10^−5 M [11]: 14.73% | GI% at 10^−5 M [12]: 21.06% | GI% at 10^−5 M [13]: 15.39% | GI% at 10^−5 M [14]: – (– means GI < 10%) | GI% at 10^−5 M [15]: – (– means GI < 10%) | GI% at 10^−5 M [16]: – (– means GI < 10%) | GI% at 10^−5 M [17]: 11.37% | GI% at 10^−5 M [18]: – (– means GI < 10%) | GI% at 10^−5 M [19]: 12.84% | GI% at 10^−5 M [20]: 17.11% | GI% at 10^−5 M [21]: 42.80% | GI% at 10^−5 M [22]: – (– means GI < 10%) | GI% at 10^−5 M [23]: – (– means GI < 10%) | GI% at 10^−5 M [24]: 29.32% | melting point: 158 to 160 °C

O=C(CN1CCN(c2ccccc2)CC1)Nn1c(COc2ccccc2)nc2ccccc2c1=O [Compound 8b, N-(4-oxo-2-(phenoxymethyl)quinazolin-3(4H)-yl)-2–(4-phenylpiperazin-1-yl)acetamid]
GI% at 10^−5 M [1]: – (– means GI < 10%) | GI% at 10^−5 M [2]: – (– means GI < 10%) | GI% at 10^−5 M [3]: – (– means GI < 10%) | GI% at 10^−5 M [4]: – (– means GI < 10%) | GI% at 10^−5 M [5]: – (– means GI < 10%) | GI% at 10^−5 M [6]: – (– means GI < 10%) | GI% at 10^−5 M [7]: – (– means GI < 10%) | GI% at 10^−5 M [8]: – (– means GI < 10%) | GI% at 10^−5 M [9]: – (– means GI < 10%) | GI% at 10^−5 M [10]: – (– means GI < 10%) | GI% at 10^−5 M [11]: – (– means GI < 10%) | GI% at 10^−5 M [12]: – (– means GI < 10%) | GI% at 10^−5 M [13]: – (– means GI < 10%) | GI% at 10^−5 M [14]: 10.01% | GI% at 10^−5 M [15]: – (– means GI < 10%) | GI% at 10^−5 M [16]: – (– means GI < 10%) | GI% at 10^−5 M [17]: – (– means GI < 10%) | GI% at 10^−5 M [18]: – (– means GI < 10%) | GI% at 10^−5 M [19]: – (– means GI < 10%) | GI% at 10^−5 M [20]: – (– means GI < 10%) | GI% at 10^−5 M [21]: – (– means GI < 10%) | GI% at 10^−5 M [22]: – (– means GI < 10%) | GI% at 10^−5 M [23]: – (– means GI < 10%) | GI% at 10^−5 M [24]: 20.18% | melting point: 115 to 117 °C

COc1ccc(N2CCN(CC(=O)Nn3c(COc4ccccc4)nc4ccccc4c3=O)CC2)cc1 [Compound 8c, 2–(4-(4-methoxyphenyl)piperazin-1-yl)-N-(4-oxo-2-(phenoxymethyl)quinazolin-3(4H)-yl)acetamide]
GI% at 10^−5 M [1]: – (– means GI < 10%) | GI% at 10^−5 M [2]: 15.04% | GI% at 10^−5 M [3]: – (– means GI < 10%) | GI% at 10^−5 M [4]: – (– means GI < 10%) | GI% at 10^−5 M [5]: – (– means GI < 10%) | GI% at 10^−5 M [6]: – (– means GI < 10%) | GI% at 10^−5 M [7]: – (– means GI < 10%) | GI% at 10^−5 M [8]: – (– means GI < 10%) | GI% at 10^−5 M [9]: – (– means GI < 10%) | GI% at 10^−5 M [10]: – (– means GI < 10%) | GI% at 10^−5 M [11]: – (– means GI < 10%) | GI% at 10^−5 M [12]: – (– means GI < 10%) | GI% at 10^−5 M [13]: – (– means GI < 10%) | GI% at 10^−5 M [14]: – (– means GI < 10%) | GI% at 10^−5 M [15]: – (– means GI < 10%) | GI% at 10^−5 M [16]: – (– means GI < 10%) | GI% at 10^−5 M [17]: – (– means GI < 10%) | GI% at 10^−5 M [18]: – (– means GI < 10%) | GI% at 10^−5 M [19]: – (– means GI < 10%) | GI% at 10^−5 M [20]: – (– means GI < 10%) | GI% at 10^−5 M [21]: – (– means GI < 10%) | GI% at 10^−5 M [22]: – (– means GI < 10%) | GI% at 10^−5 M [23]: – (– means GI < 10%) | GI% at 10^−5 M [24]: 10.03% | melting point: 100 to 102 °C
